# Experimental data published in ChEMBL document CHEMBL1138706, “Synthesis and biological evaluation of novel taxoids designed for targeted delivery to tumors” (Bioorg Med Chem Lett, 2004).
# How the values were obtained:
# [1] = tested on: MCF7; experiment: inhibitory concentration against the growth of breast cancer MCF-7 cell line after 72 hr of exposure; type: functional, cell-based; settings: Homo sapiens, MCF7, 72 h
# [2] = tested on: A549; experiment: inhibitory concentration against the growth of Non-small-cell lung carcinoma A549 cell line after 72 hr of exposure; type: functional, cell-based; settings: Homo sapiens, A549, 72 h
SMILES,IC50 [1] [µM],IC50 [2] [µM]
COc1ccc(OC)c(C(=O)O[C@H]2[C@@H]3[C@]4(OC(C)=O)CO[C@@H]4C[C@H](O)[C@@]3(C)C(=O)[C@H](OC(C)=O)C3=C(C)[C@@H](OC(=O)[C@H](O)[C@@H](NC(=O)C=C(C)C)c4ccco4)C[C@]2(O)C3(C)C)c1,0.04,0.03
COc1ccc(OC)c(C(=O)O[C@H]2[C@@H]3[C@]4(OC(C)=O)CO[C@@H]4C[C@H](O)[C@@]3(C)C(=O)[C@H](OC(C)=O)C3=C(C)[C@@H](OC(=O)[C@H](O)[C@@H](NC(=O)c4ccccc4)c4cccs4)C[C@]2(O)C3(C)C)c1,> 3,> 3
COc1ccc(OC)c(C(=O)O[C@H]2[C@@H]3[C@]4(OC(C)=O)CO[C@@H]4C[C@H](O)[C@@]3(C)C(=O)[C@H](OC(C)=O)C3=C(C)[C@@H](OC(=O)[C@H](O)[C@@H](NC(=O)OC(C)(C)C)c4ccccc4)C[C@]2(O)C3(C)C)c1,0.06,0.05
COc1ccc(OC)c(C(=O)O[C@H]2[C@@H]3[C@]4(OC(C)=O)CO[C@@H]4C[C@H](O)[C@@]3(C)C(=O)[C@H](OC(C)=O)C3=C(C)[C@@H](OC(=O)[C@H](O)[C@H](C=C(C)C)NC(=O)c4cccs4)C[C@]2(O)C3(C)C)c1,0.03,0.04
C/C=C/C(=O)N[C@@H](c1cccs1)[C@@H](O)C(=O)O[C@H]1C[C@@]2(O)[C@@H](OC(=O)c3cc(OC)ccc3OC)[C@@H]3[C@]4(OC(C)=O)CO[C@@H]4C[C@H](O)[C@@]3(C)C(=O)[C@H](OC(C)=O)C(=C1C)C2(C)C,0.16,0.18
COc1ccc(OC)c(C(=O)O[C@H]2[C@@H]3[C@]4(OC(C)=O)CO[C@@H]4C[C@H](O)[C@@]3(C)C(=O)[C@H](OC(C)=O)C3=C(C)[C@@H](OC(=O)[C@H](O)[C@H](C=C(C)C)NC(=O)c4ccccc4)C[C@]2(O)C3(C)C)c1,0.04,0.04
COc1ccc(OC)c(C(=O)O[C@H]2[C@@H]3[C@]4(OC(C)=O)CO[C@@H]4C[C@H](O)[C@@]3(C)C(=O)[C@H](OC(C)=O)C3=C(C)[C@@H](OC(=O)[C@H](O)[C@H](C=C(C)C)NC(=O)c4ccco4)C[C@]2(O)C3(C)C)c1,0.03,0.06
COc1ccc(OC)c(C(=O)O[C@H]2[C@@H]3[C@]4(OC(C)=O)CO[C@@H]4C[C@H](O)[C@@]3(C)C(=O)[C@H](OC(C)=O)C3=C(C)[C@@H](OC(=O)[C@H](O)[C@@H](NC(=O)C=C(C)C)c4cccs4)C[C@]2(O)C3(C)C)c1,0.05,0.04
CCCCOC(=O)N[C@@H](C=C(C)C)[C@@H](O)C(=O)O[C@H]1C[C@@]2(O)[C@@H](OC(=O)c3cc(OC)ccc3OC)[C@@H]3[C@]4(OC(C)=O)CO[C@@H]4C[C@H](O)[C@@]3(C)C(=O)[C@H](OC(C)=O)C(=C1C)C2(C)C,0.03,0.04
COc1ccc(OC)c(C(=O)O[C@H]2[C@@H]3[C@]4(OC(C)=O)CO[C@@H]4C[C@H](O)[C@@]3(C)C(=O)[C@H](OC(C)=O)C3=C(C)[C@@H](OC(=O)[C@H](O)[C@@H](NC(=O)c4ccccc4)c4ccccc4)C[C@]2(O)C3(C)C)c1,0.03,0.13
COc1ccc(OC)c(C(=O)O[C@H]2[C@@H]3[C@]4(OC(C)=O)CO[C@@H]4C[C@H](O)[C@@]3(C)C(=O)[C@H](OC(C)=O)C3=C(C)[C@@H](OC(=O)[C@H](O)[C@@H](NC(=O)c4ccco4)c4ccco4)C[C@]2(O)C3(C)C)c1,0.12,0.09
CCCCOC(=O)N[C@@H](c1ccco1)[C@@H](O)C(=O)O[C@H]1C[C@@]2(O)[C@@H](OC(=O)c3cc(OC)ccc3OC)[C@@H]3[C@]4(OC(C)=O)CO[C@@H]4C[C@H](O)[C@@]3(C)C(=O)[C@H](OC(C)=O)C(=C1C)C2(C)C,0.03,0.03
CC(=O)O[C@@]12CO[C@@H]1C[C@H](O)[C@@]1(C)C(=O)[C@H](O)C3=C(C)[C@@H](OC(=O)[C@H](O)[C@@H](NC(=O)OC(C)(C)C)c4ccccc4)C[C@@](O)([C@@H](OC(=O)c4ccccc4)[C@H]21)C3(C)C [DOCETAXEL],1,1
COc1ccc(OC)c(C(=O)O[C@H]2[C@@H]3[C@]4(OC(C)=O)CO[C@@H]4C[C@H](O)[C@@]3(C)C(=O)[C@H](OC(C)=O)C3=C(C)[C@@H](OC(=O)[C@H](O)[C@H](C=C(C)C)NC(=O)OC(C)(C)C)C[C@]2(O)C3(C)C)c1,0.04,0.04
CCCCOC(=O)N[C@@H](c1cccs1)[C@@H](O)C(=O)O[C@H]1C[C@@]2(O)[C@@H](OC(=O)c3cc(OC)ccc3OC)[C@@H]3[C@]4(OC(C)=O)CO[C@@H]4C[C@H](O)[C@@]3(C)C(=O)[C@H](OC(C)=O)C(=C1C)C2(C)C,0.04,0.04
C/C=C/C(=O)N[C@@H](C=C(C)C)[C@@H](O)C(=O)O[C@H]1C[C@@]2(O)[C@@H](OC(=O)c3cc(OC)ccc3OC)[C@@H]3[C@]4(OC(C)=O)CO[C@@H]4C[C@H](O)[C@@]3(C)C(=O)[C@H](OC(C)=O)C(=C1C)C2(C)C,0.01,0.03
COc1ccc(OC)c(C(=O)O[C@H]2[C@@H]3[C@]4(OC(C)=O)CO[C@@H]4C[C@H](O)[C@@]3(C)C(=O)[C@H](OC(C)=O)C3=C(C)[C@@H](OC(=O)[C@H](O)[C@@H](NC(=O)c4ccccc4)c4ccco4)C[C@]2(O)C3(C)C)c1,0.21,0.22
COc1ccc(OC)c(C(=O)O[C@H]2[C@@H]3[C@]4(OC(C)=O)CO[C@@H]4C[C@H](O)[C@@]3(C)C(=O)[C@H](OC(C)=O)C3=C(C)[C@@H](OC(=O)[C@H](O)[C@H](C=C(C)C)NC(=O)C=C(C)C)C[C@]2(O)C3(C)C)c1,0.02,0.02
COc1ccc(OC)c(C(=O)O[C@H]2[C@@H]3[C@]4(OC(C)=O)CO[C@@H]4C[C@H](O)[C@@]3(C)C(=O)[C@H](OC(C)=O)C3=C(C)[C@@H](OC(=O)[C@H](O)[C@@H](NC(=O)c4cccs4)c4cccs4)C[C@]2(O)C3(C)C)c1,0.03,0.03
C/C=C/C(=O)N[C@@H](c1ccco1)[C@@H](O)C(=O)O[C@H]1C[C@@]2(O)[C@@H](OC(=O)c3cc(OC)ccc3OC)[C@@H]3[C@]4(OC(C)=O)CO[C@@H]4C[C@H](O)[C@@]3(C)C(=O)[C@H](OC(C)=O)C(=C1C)C2(C)C,0.13,0.16
COc1ccc(OC)c(C(=O)O[C@H]2[C@@H]3[C@]4(OC(C)=O)CO[C@@H]4C[C@H](O)[C@@]3(C)C(=O)[C@H](OC(C)=O)C3=C(C)[C@@H](OC(=O)[C@H](O)[C@@H](NC(=O)OC(C)(C)C)c4cccs4)C[C@]2(O)C3(C)C)c1,0.03,0.03
CC(=O)O[C@H]1C(=O)[C@@]2(C)[C@H]([C@H](OC(=O)c3ccccc3)[C@]3(O)C[C@H](OC(=O)[C@H](O)[C@@H](NC(=O)c4ccccc4)c4ccccc4)C(C)=C1C3(C)C)[C@]1(OC(C)=O)CO[C@@H]1C[C@@H]2O [PACLITAXEL],0.8,1.7
COc1ccc(OC)c(C(=O)O[C@H]2[C@@H]3[C@]4(OC(C)=O)CO[C@@H]4C[C@H](O)[C@@]3(C)C(=O)[C@H](OC(C)=O)C3=C(C)[C@@H](OC(=O)[C@H](O)[C@@H](NC(=O)c4cccs4)c4ccco4)C[C@]2(O)C3(C)C)c1,0.06,0.1
COc1ccc(OC)c(C(=O)O[C@H]2[C@@H]3[C@]4(OC(C)=O)CO[C@@H]4C[C@H](O)[C@@]3(C)C(=O)[C@H](OC(C)=O)C3=C(C)[C@@H](OC(=O)[C@H](O)[C@@H](NC(=O)OC(C)(C)C)c4ccco4)C[C@]2(O)C3(C)C)c1,0.04,0.03
COc1ccc(OC)c(C(=O)O[C@H]2[C@@H]3[C@]4(OC(C)=O)CO[C@@H]4C[C@H](O)[C@@]3(C)C(=O)[C@H](OC(C)=O)C3=C(C)[C@@H](OC(=O)[C@H](O)[C@@H](NC(=O)c4ccco4)c4cccs4)C[C@]2(O)C3(C)C)c1,0.06,0.05
